Where two headings read alike, the source gives them in different places.
What was measured:
[1] = molecular target: panel of 255 wild-type kinases (Homo sapiens, UniProt P29317); assay: Kinase panel profiling at 1 µmol/L (MSA or IMAP), percentage inhibition; assay type: biochemical; conditions: kinase EPHA2; 1 µmol/L single concentration; read-out: %-inhibition at 1 µmol/L, EPHA2
[2] = molecular target: panel of 255 wild-type kinases (Homo sapiens, UniProt Q9Y6M4); assay: as above; assay type: biochemical; conditions: kinase CK1γ3; 1 µmol/L single concentration; read-out: %-inhibition at 1 µmol/L, CK1γ3
[3] = system: AP-1060 (ETV6-NTRK3); assay: Cell viability assay; conditions: read-out: IC50 in cell proliferation assay
[4] = system: 134 cancer cell lines; assay: Cell viability assay (ATPlite, 72 hours), IC50 on cancer cell line panel

FC(F)(F)c1ccc(CNc2ccc(Cc3c[nH]c4ncc(Cl)cc34)cn2)cn1 [pexidartinib]
> 31.6 µM: IC50 [3] | IC50 ([4]; HEC-6, read-out: IC50 in cell proliferation assay, HEC-6 cell line (EGFR p.A289V)) | IC50 ([4]; Homo sapiens, 769-P, read-out: IC50 in cell proliferation assay, cell line 769-P) | IC50 ([4]; Homo sapiens, 786-0, read-out: IC50 in cell proliferation assay, cell line 786-O) | IC50 ([4]; Homo sapiens, A 172, read-out: IC50 in cell proliferation assay, cell line A-172) | IC50 ([4]; Homo sapiens, A498, read-out: IC50 in cell proliferation assay, cell line A-498) | IC50 ([4]; Homo sapiens, A549, read-out: IC50 in cell proliferation assay, cell line A-549) | IC50 ([4]; Homo sapiens, A704, read-out: IC50 in cell proliferation assay, cell line A-704) | IC50 ([4]; Homo sapiens, A-375, read-out: IC50 in cell proliferation assay, cell line A-375 (BRAF p.V600E)) | IC50 ([4]; Homo sapiens, ACHN, read-out: IC50 in cell proliferation assay, cell line ACHN) | IC50 ([4]; Homo sapiens, ASPC1, read-out: IC50 in cell proliferation assay, cell line AsPC-1) | IC50 ([4]; Homo sapiens, BT-20, read-out: IC50 in cell proliferation assay, cell line BT-20) | IC50 ([4]; Homo sapiens, BT-474, read-out: IC50 in cell proliferation assay, cell line BT-474 (ERBB2 amplification)) | IC50 ([4]; Homo sapiens, BT-549, read-out: IC50 in cell proliferation assay, cell line BT-549) | IC50 ([4]; Homo sapiens, BXPC-3, read-out: IC50 in cell proliferation assay, cell line BxPC-3) | IC50 ([4]; Homo sapiens, C-33-A, read-out: IC50 in cell proliferation assay, cell line C-33 A) | IC50 ([4]; Homo sapiens, CAL-27, read-out: IC50 in cell proliferation assay, cell line CAL-27) | IC50 ([4]; Homo sapiens, CCF-STTG1, read-out: IC50 in cell proliferation assay, cell line CCF-STTG1) | IC50 ([4]; Homo sapiens, CCRF-CEM, read-out: IC50 in cell proliferation assay, cell line CCRF-CEM) | IC50 ([4]; Homo sapiens, COLO 205, read-out: IC50 in cell proliferation assay, cell line COLO 205 (BRAF p.V600E)) | IC50 ([4]; Homo sapiens, COLO-829, read-out: IC50 in cell proliferation assay, cell line COLO 829 (BRAF p.V600E)) | IC50 ([4]; Homo sapiens, DLD-1, read-out: IC50 in cell proliferation assay, cell line DLD-1) | IC50 ([4]; Homo sapiens, DU-4475, read-out: IC50 in cell proliferation assay, cell line DU4475 (BRAF p.V600E)) | IC50 ([4]; Homo sapiens, Daoy, read-out: IC50 in cell proliferation assay, cell line Daoy) | IC50 ([4]; Homo sapiens, DoTc2-4510, read-out: IC50 in cell proliferation assay, cell line DoTc2 4510) | IC50 ([4]; Homo sapiens, FaDu, read-out: IC50 in cell proliferation assay, cell line FaDu) | IC50 ([4]; Homo sapiens, HCC827, read-out: IC50 in cell proliferation assay, cell line HCC827 (EGFR exon19del)) | IC50 ([4]; Homo sapiens, HCC4006, read-out: IC50 in cell proliferation assay, cell line HCC4006 (EGFR exon19del)) | IC50 ([4]; Homo sapiens, HCT-15, read-out: IC50 in cell proliferation assay, cell line HCT 15) | IC50 ([4]; Homo sapiens, HCT-116, read-out: IC50 in cell proliferation assay, cell line HCT 116) | IC50 ([4]; Homo sapiens, HEC-1, read-out: IC50 in cell proliferation assay, HEC-1 cell line) | IC50 ([4]; Homo sapiens, HEC-1B, read-out: IC50 in cell proliferation assay, HEC-1-B cell line (EGFR p.A864V)) | IC50 ([4]; Homo sapiens, HL-60, read-out: IC50 in cell proliferation assay, HL-60 cell line) | IC50 ([4]; Homo sapiens, HT, read-out: IC50 in cell proliferation assay, HT cell line) | IC50 ([4]; Homo sapiens, HT-1080, read-out: IC50 in cell proliferation assay, HT-1080 cell line) | IC50 ([4]; Homo sapiens, Hs746T, read-out: IC50 in cell proliferation assay, Hs 746.T cell line (MET exon14skip + amplification)) | IC50 ([4]; Homo sapiens, J82, read-out: IC50 in cell proliferation assay, J82 cell line) | IC50 ([4]; Homo sapiens, Jurkat E6.1, read-out: IC50 in cell proliferation assay, Jurkat E6.1 cell line) | IC50 ([4]; Homo sapiens, K562, read-out: IC50 in cell proliferation assay, K-562 cell line) | IC50 ([4]; Homo sapiens, KLE, read-out: IC50 in cell proliferation assay, KLE cell line) | IC50 ([4]; Homo sapiens, KMS-11, read-out: IC50 in cell proliferation assay, KMS-11 cell line (FGFR3 p.Y373C)) | IC50 ([4]; Homo sapiens, KU812, read-out: IC50 in cell proliferation assay, Ku812 cell line) | IC50 ([4]; Homo sapiens, LC-2-ad, read-out: IC50 in cell proliferation assay, LC-2/ad cell line (CCDC6-RET)) | IC50 ([4]; Homo sapiens, LNCaP-Clone-FGC, read-out: IC50 in cell proliferation assay, LNCaP clone FGC cell line) | IC50 ([4]; Homo sapiens, LS174T, read-out: IC50 in cell proliferation assay, LS174T cell line) | IC50 ([4]; Homo sapiens, LS-411N, read-out: IC50 in cell proliferation assay, LS411N cell line (BRAF p.V600E)) | IC50 ([4]; Homo sapiens, LoVo, read-out: IC50 in cell proliferation assay, LoVo cell line) | IC50 ([4]; Homo sapiens, MDA-MB-231, read-out: IC50 in cell proliferation assay, MDA-MB-231 cell line) | IC50 ([4]; Homo sapiens, MDA-MB-453, read-out: IC50 in cell proliferation assay, MDA-MB-453 cell line) | IC50 ([4]; Homo sapiens, MDA-MB-468, read-out: IC50 in cell proliferation assay, MDA-MB-468 cell line) | IC50 ([4]; Homo sapiens, MG-63, read-out: IC50 in cell proliferation assay, MG-63 cell line) | IC50 ([4]; Homo sapiens, MIA PaCa-2, read-out: IC50 in cell proliferation assay, MIA PaCa-2 cell line) | IC50 ([4]; Homo sapiens, MKN-45, read-out: IC50 in cell proliferation assay, MKN45 cell line (MET amplification))
25.3 µM: IC50 ([4]; Homo sapiens, AN3-CA, read-out: IC50 in cell proliferation assay, cell line AN3-CA (FGFR2 p.N549K))
23.6 µM: IC50 ([4]; Homo sapiens, G-361, read-out: IC50 in cell proliferation assay, cell line G-361 (BRAF p.V600E))
24.1 µM: IC50 ([4]; Homo sapiens, A-427, read-out: IC50 in cell proliferation assay, cell line A-427)
18.1 µM: IC50 ([4]; Homo sapiens, MCF7, read-out: IC50 in cell proliferation assay, MCF-7 cell line)
22.8 µM: IC50 ([4]; Homo sapiens, HuTu80, read-out: IC50 in cell proliferation assay, HuTu 80 cell line)
25.4 µM: IC50 ([4]; Homo sapiens, AU565, read-out: IC50 in cell proliferation assay, cell line AU565 (ERBB2 amplification))
7.59%: inhibition at 1 µM [1]
10.1 µM: IC50 ([4]; Homo sapiens, KATO III, read-out: IC50 in cell proliferation assay, KATO III cell line (FGFR2 amplification))
0.01 µM: IC50 ([4]; Homo sapiens, EOL1, read-out: IC50 in cell proliferation assay, cell line EoL-1 (FIP1L1-PDGFRA))
7.51 µM: IC50 ([4]; Homo sapiens, KG-1, read-out: IC50 in cell proliferation assay, KG-1 cell line (FGFR1OP2-FGFR1))
-0.557%: inhibition at 1 µM [2]
25.7 µM: IC50 ([4]; Homo sapiens, Hs-578T, read-out: IC50 in cell proliferation assay, Hs 578T cell line)
0.228 µM: IC50 ([4]; Homo sapiens, Kasumi 1, read-out: IC50 in cell proliferation assay, Kasumi-1 cell line (KIT p.N822K))
0.935 µM: IC50 ([4]; Homo sapiens, A204, read-out: IC50 in cell proliferation assay, cell line A-204)

From paper PMC9516332 (Frontiers in Oncology, 2022)
